Reference: patent publication US12404241B2 (Celgene Corporation, priority 2018, dated 2025)
Counter-ions that a name gives are not always drawn.

Target: T1, AR (Homo sapiens, UniProt P10275)
T1 construct: endogenous in cells; host or cells: VCaP cells
T1 sequence (P10275 1-920): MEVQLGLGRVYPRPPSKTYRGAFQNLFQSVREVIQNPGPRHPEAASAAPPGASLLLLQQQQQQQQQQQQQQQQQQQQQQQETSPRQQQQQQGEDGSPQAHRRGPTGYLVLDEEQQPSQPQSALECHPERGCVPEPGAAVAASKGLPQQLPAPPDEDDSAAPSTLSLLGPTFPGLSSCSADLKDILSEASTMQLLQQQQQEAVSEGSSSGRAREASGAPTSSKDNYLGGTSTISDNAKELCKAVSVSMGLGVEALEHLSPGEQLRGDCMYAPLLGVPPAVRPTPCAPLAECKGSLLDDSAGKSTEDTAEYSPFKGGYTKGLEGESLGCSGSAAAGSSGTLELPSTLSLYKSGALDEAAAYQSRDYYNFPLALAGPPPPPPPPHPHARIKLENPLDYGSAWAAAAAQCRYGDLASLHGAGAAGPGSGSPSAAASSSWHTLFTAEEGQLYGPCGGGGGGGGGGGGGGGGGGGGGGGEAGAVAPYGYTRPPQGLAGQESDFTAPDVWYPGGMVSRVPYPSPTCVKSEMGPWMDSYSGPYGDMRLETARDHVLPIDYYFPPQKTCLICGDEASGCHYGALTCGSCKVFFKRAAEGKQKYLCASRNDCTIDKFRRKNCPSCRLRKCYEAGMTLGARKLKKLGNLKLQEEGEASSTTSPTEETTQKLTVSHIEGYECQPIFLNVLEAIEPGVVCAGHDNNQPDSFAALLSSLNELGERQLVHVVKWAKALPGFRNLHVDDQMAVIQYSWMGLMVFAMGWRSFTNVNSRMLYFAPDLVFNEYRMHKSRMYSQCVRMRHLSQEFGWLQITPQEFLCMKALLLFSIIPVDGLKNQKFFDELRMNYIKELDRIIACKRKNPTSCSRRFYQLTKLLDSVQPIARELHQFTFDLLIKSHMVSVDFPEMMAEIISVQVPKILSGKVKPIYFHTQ
Experiment: VCAP AR Degradation Assay
Assay type: cell-based
Settings: for Y (AR degradation efficiency, % of DMSO control): class symbols *; for DC50: class symbols A-C, read-out: DC50
Method in brief: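 AR protein in lysates quantified by sandwich ELISA after 24 h exposure of VCaP cells at 37 °C to 10 concentrations (1:3 steps, 5 μM top, final). Four-parameter logistic fit of percent-of-DMSO levels gave DC50 (50% degradation), EC50 and minimal AR level Y.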

SMILES | Y (AR degradation efficiency, % of DMSO control) | DC50 [nM]
CCc1cc(N2C(=S)N(c3ccc(C#N)c(C(F)(F)F)c3)C(=O)C2(C)C)ccc1OCCN1CCN(CC(=O)Nc2cccc(NC3CCC(=O)NC3=O)c2)C[C@@H]1CO (stereo partly shown) [Example 48] | * (0<Y<=25%) | < 100
CCc1cc(N2C(=S)N(c3ccc(C#N)c(C(F)(F)F)c3)C(=O)C2(C)C)cnc1OCCN1C[C@@H](C)N(CC(=O)Nc2cccc(NC3CCC(=O)NC3=O)c2)[C@@H](C)C1 (stereo partly drawn) [Example 216, 2-((2R,6S)-4-(2-(5-(3-(4-cyano-3-(trifluoromethyl)phenyl)-5,5-dimethyl-4-oxo-2-thioxoimidazolidin-1-yl)-3-ethylpyridin-2-yloxy)ethyl)-2,6-dimethylpiperazin-1-yl)-N-(3-(2,6-dioxopiperidin-3-ylamino)phenyl)acetamide] | ** (25%<Y<=35%) | < 100
CCc1cc(N2C(=S)N(c3ccc(C#N)c(C(F)(F)F)c3)C(=O)C2(C)C)cnc1OCCN1C[C@@H](C)N(CC(=O)Nc2cc(Cl)cc(NC3CCC(=O)NC3=O)c2)C[C@H]1C (stereo partly drawn) [Example 189, N-(3-chloro-5-(2,6-dioxopiperidin-3-ylamino)phenyl)-2-((2R,5R)-4-(2-(5-(3-(4-cyano-3-(trifluoromethyl)phenyl)-5,5-dimethyl-4-oxo-2-thioxoimidazolidin-1-yl)-3-ethylpyridin-2-yloxy)ethyl)-2,5-dimethylpiperazin-1-yl)acetamide] | * (0<Y<=25%) | < 100
CCc1cc(N2C(=S)N(c3ccc(C#N)c(C(F)(F)F)c3)C(=O)C2(C)C)ccc1OCCN1CCN(CC(=O)Nc2cc(NC3CCC(=O)NC3=O)ccc2Cl)CC1 (stereo not shown) [Example 41, hydrochloride] | * (0<Y<=25%) | < 100
CC(C)c1cc(N2C(=S)N(c3cnc(C#N)c(C(F)(F)F)c3)C(=O)C2(C)C)ccc1OCCN1CCN(CC(=O)Nc2cccc(NC3CCC(=O)NC3=O)c2)CC1 (stereo not shown) [Example 53, 2-(4-(2-(4-(3-(6-cyano-5-(trifluoromethyl)pyridin-3-yl)-5,5-dimethyl-4-oxo-2-thioxoimidazolidin-1-yl)-2-isopropylphenoxy)ethyl)piperazin-1-yl)-N-(3-(2,6-dioxopiperidin-3-ylamino)phenyl)acetamide] | * (0<Y<=25%) | < 100
C[C@@H]1CN(CCOc2ccc(N3C(=S)N(c4cnc(C#N)c(C(F)(F)F)c4)C(=O)C34CCC4)cc2C2CC2)C[C@H](C)N1CC(=O)Nc1cc(F)cc(NC2CCC(=O)NC2=O)c1 (stereo partly drawn) [Example 218, 2-((2S,6R)-4-(2-(4-(7-(6-cyano-5-(trifluoromethyl)pyridin-3-yl)-8-oxo-6-thioxo-5,7-diazaspiro[3.4]octan-5-yl)-2-cyclopropylphenoxy)ethyl)-2,6-dimethylpiperazin-1-yl)-N-(3-(2,6-dioxopiperidin-3-ylamino)-5-fluorophenyl)acetamide] | * (0<Y<=25%) | < 100
CCc1cc(N2C(=S)N(c3ccc(C#N)c(C(F)(F)F)c3)C(=O)C2(C)C)cnc1OCCN1CCN(CC(=O)Nc2cccc(NC3CCC(=O)NC3=O)c2)[C@H](C)C1 (stereo partly drawn) [Example 187, 2-((R)-4-(2-(5-(3-(4-cyano-3-(trifluoromethyl)phenyl)-5,5-dimethyl-4-oxo-2-thioxoimidazolidin-1-yl)-3-ethylpyridin-2-yloxy)ethyl)-2-methylpiperazin-1-yl)-N-(3-(2,6-dioxopiperidin-3-ylamino)phenyl)acetamide] | * (0<Y<=25%) | < 100
CCc1cc(N2C(=S)N(c3ccc(C#N)c(C(F)(F)F)c3)C(=O)C23CCC3)ccc1OCCN1CCN(CC(=O)Nc2cccc(NC3CCC(=O)NC3=O)c2)[C@H](C)C1 (stereo partly drawn) [Example 105, 2-((R)-4-(2-(4-(7-(4-cyano-3-(trifluoromethyl)phenyl)-8-oxo-6-thioxo-5,7-diazaspiro[3.4]octan-5-yl)-2-ethylphenoxy)ethyl)-2-methylpiperazin-1-yl)-N-(3-(2,6-dioxopiperidin-3-ylamino)phenyl)acetamide] | * (0<Y<=25%) | < 100
CCc1cc(N2C(=S)N(c3ccc(C#N)c(C(F)(F)F)c3)C(=O)C2(C)C)ccc1OCCN1CCN(CC(=O)Nc2cccc(N[C@H]3CCC(=O)NC3=O)c2)[C@H](C)C1 [Example 111, 2-((R)-4-(2-(4-(3-(4-cyano-3-(trifluoromethyl)phenyl)-5,5-dimethyl-4-oxo-2-thioxoimidazolidin-1-yl)-2-ethylphenoxy)ethyl)-2-methylpiperazin-1-yl)-N-(3-((S)-2,6-dioxopiperidin-3-ylamino)phenyl)acetamide] | * (0<Y<=25%) | < 100
C[C@@H]1CN(CCOc2ccc(N3C(=S)N(c4ccc(C#N)c(Cl)c4)C(=O)C3(C)C)cc2C(C)(F)F)C[C@H](C)N1CC(=O)Nc1cccc(NC2CCC(=O)NC2=O)c1 (stereo partly drawn) [Example 269, 2-((2S,6R)-4-(2-(4-(3-(3-chloro-4-cyanophenyl)-5,5-dimethyl-4-oxo-2-thioxoimidazolidin-1-yl)-2-(1,1-difluoroethyl)phenoxy)ethyl)-2,6-dimethylpiperazin-1-yl)-N-(3-(2,6-dioxopiperidin-3-ylamino)phenyl)acetamide] | * (0<Y<=25%) | < 100
N#Cc1ccc(N2C(=O)C3(CCOC3)N(c3ccc(OCCN4CCN(CC(=O)Nc5cc(Cl)cc(NC6CCC(=O)NC6=O)c5)CC4)c(F)c3)C2=S)cc1C(F)(F)F (single isomer, unassigned) [Example 55, N-(3-chloro-5-(2,6-dioxopiperidin-3-ylamino)phenyl)-2-(4-(2-(4-(3-(4-cyano-3 (trifluoromethyl)phenyl)-4-oxo-2-thioxo-7-oxa-1,3-diazaspiro[4.4]nonan-1-yl)-2-fluorophenoxy)ethyl)piperazin-1-yl)acetamide] | ** (25%<Y<=35%) | 100 to 500
C[C@@H]1CN(CCCc2ccc(N3C(=S)N(c4ccc(C#N)c(C(F)(F)F)c4)C(=O)C3(C)C)cc2F)C[C@H](C)N1CC(=O)Nc1cccc(NC2CCC(=O)NC2=O)c1 (stereo partly drawn) [Example 287, 2-((2R,6S)-4-(3-(4-(3-(4-cyano-3-(trifluoromethyl)phenyl)-5,5-dimethyl-4-oxo-2-thioxoimidazolidin-1-yl)-2-fluorophenyl)propyl)-2,6-dimethylpiperazin-1-yl)-N-(3-(2,6-dioxopiperidin-3-ylamino)phenyl)acetamide] | * (0<Y<=25%) | < 100
CCc1cc(N2C(=S)N(c3cnc(C#N)c(C(F)(F)F)c3)C(=O)C2(C)C)ccc1OCCN1CCN([C@H](C)C(=O)Nc2cc(Cl)cc(NC3CCC(=O)NC3=O)c2)CC1 (single isomer, unassigned) [Example 113] | * (0<Y<=25%) | < 100
CCc1cc(N2C(=S)N(c3ccc(C#N)c(C(F)(F)F)c3)C(=O)C2(C)C)ccc1OCCN1C[C@@H](C)N(CC(=O)Nc2cccc(NC3CCC(=O)NC3=O)c2)[C@H](C)C1 (stereo partly drawn) [Example 129, 2-((2R,6R)-4-(2-(4-(3-(4-cyano-3-(trifluoromethyl)phenyl)-5,5-dimethyl-4-oxo-2-thioxoimidazolidin-1-yl)-2-ethylphenoxy)ethyl)-2,6-dimethylpiperazin-1-yl)-N-(3-(2,6-dioxopiperidin-3-ylamino)phenyl)acetamide] | * (0<Y<=25%) | < 100
N#Cc1ccc(N2C(=O)C3(CCC3)N(c3ccc(OCCN4CCN(CC(=O)Nc5cccc(NC6CCC(=O)NC6=O)c5)CC4)c(F)c3)C2=S)cc1C(F)(F)F (stereo not shown) [Example 8, hydrochloride] | ** (25%<Y<=35%) | < 100
CCc1cc(N2C(=S)N(c3ccc(C#N)c(C(F)(F)F)c3)C(=O)C2(C)C)ccc1OCCN1CCN(CC(=O)Nc2cc(Cl)cc(NC3CCC(=O)NC3=O)c2)C2(CC2)C1 (stereo not shown) [Example 101, N-(3-chloro-5-(2,6-dioxopiperidin-3-ylamino)phenyl)-2-(7-(2-(4-(3-(4-cyano-3-(trifluoromethyl)phenyl)-5,5-dimethyl-4-oxo-2-thioxoimidazolidin-1-yl)-2-ethylphenoxy)ethyl)-4,7-diazaspiro[2.5]octan-4-yl)acetamide] | * (0<Y<=25%) | < 100
CCc1cc(N2C(=S)N(c3ccc(C#N)c(C(F)(F)F)c3)C(=O)C2(C)C)ccc1OCCN1CCN(CC(=O)Nc2cccc(NC3CCC(=O)NC3=O)c2Cl)CC1 (stereo not shown) [Example 35, hydrochloride] | ** (25%<Y<=35%) | 100 to 500
